What was measured:
[1] = tested on: human cardiac myosin S2 peptide; assay: Competitive ELISA (cELISA) against polyclonal anti-S2 antibody; format: binding; conditions: low-high-low OD trend
Description: Phosphate buffer saline (PBS) contained 0.14 M sodium chloride, 2.7 mM potassium chloride, 1.5 mM potassium phosphate monobasic, and 8.1 mM sodium phosphate dibasic with pH 7.4. Detergent buffer was made with 0.05% triton X-100 in PBS, blocking buffer was made with 3% powdered milk in detergent buffer. Assay buffer contained 100 mM potassium phosphate dibasic, 100 mM potassium phosphate monobasic, 1 M potassium chloride and 10 mM magnesium chloride with pH 7.0. Stocks of primary antibody (polyclonal antibody anti-S2), rabbit skeletal myosin, human cardiac myosin S2 peptide, stabilizer and destabilizer peptide. Secondary antibody conjugated with alkaline phosphatase was anti-guinea pig immunoglobulin G (IgG)-alkaline phosphatase (Sigma-Aldrich, catalog number A5062) produced in goat and isolated by affinity chromatography. Substrate was 5-Bromo-4-chloro-3-indolyl phosphate (BCIP) tablets dissolved in 10 ml of distilled water per tablet and 96 well microtiter plate.
Competitive Enzyme Linked Immunosorbent Assay (cELISA) is a classical immunochemical test to validate the binding efficiency and specificity in lower molar concentrations (Yorde et al., 1976; Voller et al., 1978; Walker, J. M. 1996). In this assay the polyclonal antibody anti-S2 raised against single alpha helix of myosin S2 would be used to compete with stabilizer or destabilizer peptide to bind myosin S2 in rabbit skeletal myosin molecule as well as small human cardiac myosin S2 peptide. This cELISA, thus have two molecules polyclonal anti-S2 and stabilizer peptide which have two binding sites one on rabbit skeletal myosin and the other one being on small human cardiac myosin S2. Since both polyclonal anti-S2 and stabilizer peptide were designed against human β-cardiac myosin S2 they both would have a stronger affinity towards the smaller human β-cardiac myosin S2 peptide against the myosin S2 on rabbit skeletal myosin.
To test the binding specificity and efficiency of stabilizer or destabilizer peptide the following setup was used. Start of the setup would be to coat the wells with rabbit skeletal myosin molecule and add appropriate amount human cardiac myosin S2 peptide that would bind the primary polyclonal anti-S2 antibody and when washed there won't be enough primary polyclonal anti-S2 antibody to bind myosin S2 of rabbit skeletal myosin adsorbed on the wells. When alkaline phosphatase conjugated secondary antibody is added on to the wells, it won't have enough or none primary polyclonal anti-S2 antibody to bind. After addition of color developing BCIP substrate to the wells it would lead to low or no color development leading to lower optical density (OD). […]

[2] = tested on: rabbit skeletal myosin (myosin S2 coiled coil); assay: GFS with rabbit skeletal myosin tethered by S1 heads to G-actin; format: biochemical
Description: To test stability and flexibility of myosin S2 peptide two different types of conjugation was performed to tether the molecule between the immobile edge and mobile edge. First conjugation was crosslinking the muscle myosin S2 peptides to immobile edge and mobile bead. A different conjugation was benefiting from the binding property of actin to myosin S1. Rabbit skeletal myosin molecule at myosin S1 position was bound with G-actin treated immobile edge and mobile bead.
This conjugation was done by first, treating glass coverslips and silica beads with 0.04% 3-aminopropyltriethoxylsilane in acetone to add the aminosilane groups to both glass coverslips and silica beads. To cross link G-actin to the aminosilanated glass coverslips and silica beads 740 mM 1-ethyl-3-(3 dimethyaminopropyl) carbodiimide was used with help of 60 μM N-hydroxysuccinamide. To block any unreacted group, glycine quenching solution was added. Lastly, both glass coverslips and silica beads went over several washes with low salt buffer and were stored in the same low salt buffer for GFS experiments.
The point of attachment to tether myosin molecule between immobile edge of the coverslip and mobile beads, was at the acto-myosin S1 binding region. The edge of the coverslips and silica beads are coated with G-actin molecules. […]

For `CSCC[C@H](NC(=O)[C@H](CCC(=O)O)NC(=O)[C@H](CCCNC(=N)N)NC(=O)[C@H](CCC(=O)O)NC(=O)[C@H](CC(=O)O)NC(=O)[C@H](CCC(=O)O)NC(=O)[C@H](CC(C)C)NC(=O)[C@H](CCCNC(=N)N)NC(=O)[C@H](CCC(=O)O)NC(=O)[C@H](CC(N)=O)NC(=O)[C@H](CCSC)NC(=O)[C@@H](N)CCC(=O)O)C(=O)N[C@@H](CCCCN)C(=O)N[C@@H](C)C(=O)N[C@@H](CCC(=O)O)C(=O)N[C@@H](CC(C)C)C(=O)N[C@H](C(=O)N[C@@H](C)C(=O)N[C@@H](CCCCN)C(=O)O)[C@@H](C)O` [Destabilizer], the “cross specificity to human cardiac myosin S2 and rabbit skeletal myosin S2” value [1] was “cross specific”, the “force required to uncoil myosin relative to absence of peptide (less)” value ([2]; destabilizer peptide vs control) was 1.6 times and the “Force required to uncoil the myosin molecule” value ([2]; length 100 nm, in presence of destabilizer peptide) was 3.09±0.05 pN.

— patent US12617818B2, “Compositions and methods for modulating myosin subfragment-2 coiled coil stability and methods for using them” (UNIVERSITY OF NORTH TEXAS, priority 2020, dated 2026)
